Counter-ions that a name gives are not always drawn.
Legend:
[1] = test system: water-immersion stress-induced gastric ulcer (Slc:SD rats); experiment: Water-immersion stress ulceration method; assay type: in vivo, rat (male Slc:SD); conditions: for Inhibition rate: vs non-treated control
Procedure: The stomachs were incised along the greater curvature, and the ulcers thus induced were measured for length under the stereoscopic microscope (magnification,×10), whereby the total sum of the lengths was taken as an ulcer index (U.I., in mm). The test substance was given orally to rats in the form of a 4% gum arabic suspension 30 minutes before stress loading.

[2] = Acute toxicity; conditions: mouse, in vivo; male ddY mice, single oral dose, observed for 7 days
Text: A group of five male ddY mice (4-weeks aged) was used for testing.
The compound of Example 1 was suspended in 4% gum arabic solution to prepare a test pharmaceutical, which was given orally to each test animals once.

[3] = 30 mg/kg, oral, 30 minutes before stress loading, 7 hours stress
[4] = 10 mg/kg, oral, 30 minutes before stress loading, 7 hours stress

Row | Compound | Inhibition rate ([1]; 30 mg/kg, control reference (Cimetidine), no significance mark) | ulcer index (U.I.), Mean ± S.E. [1, 3] | ulcer index (U.I.), Mean ± S.E. [1, 4] | Inhibition rate [1, 4] | Inhibition rate ([1]; 30 mg/kg, oral, 30 minutes before stress loading, 7 hours stress, *p < 0.05) | ulcer index (U.I.), Mean ± S.E. ([1]; 100 mg/kg, oral, 30 minutes before stress loading, 7 hours stress) | Inhibition rate ([1]; 100 mg/kg, oral, 30 minutes before stress loading, 7 hours stress, **p < 0.01) | LD50 at 168 h [2]
1 | CN/C(=N/CCSCc1nc[nH]c1C)NC#N [Cimetidine, reference compound] | 61.4% | 5.2 ± 3.40 mm | – | – | – | – | – | –
2 | O=C(CNc1ccncc1)Nc1ccccc1Nc1ccccc1 [Example 1, N-[2-(phenylamino),phenyl]-2-[(4-pyridinyl)-amino]actetamide hydrochloride] | – | 3.8 ± 1.66 mm | 13.0 ± 4.47 mm | 2.8% | 71.3% | 1.5 ± 1.31 mm | 88.8% | ≥ 2000 mg/kg
